Literature values, collected in patent US20250241296A1, “HIGH-LOAD AGRICULTURAL FORMULATIONS AND METHODS OF MAKING SAME” (priority 2022, published 2025).

Details: footnote a: values from the Chemistry Dashboard of the US Environmental Protection Agency

Molecule	Density
Fc1ccc([C@]2(Cn3cncn3)O[C@H]2c2ccccc2Cl)cc1 (racemic) [Epoxiconazole]	1.42^a g/mL
CO/C=C(/C(=O)OC)c1ccccc1Oc1cc(Oc2ccccc2C#N)ncn1 [Azoxystrobin]	1.34^a g/mL
COC(=O)Nc1nc2ccccc2[nH]1 [Carbendazim]	1.39^a g/mL
CNC(=O)c1cc(Cl)cc(C)c1NC(=O)c1cc(Br)nn1-c1ncccc1Cl [Chlorantraniliprole]	1.65^a g/mL
CNC(=O)c1cc(C#N)cc(C)c1NC(=O)c1cc(Br)nn1-c1ncccc1Cl [Cyantraniliprole]	1.65^a g/mL
CC(C1CC1)C(O)(Cn1cncn1)c1ccc(Cl)cc1 (stereo not drawn) [Cyproconazole]	1.31^a g/mL
O=[N+]([O-])c1cc(C(F)(F)F)c(Cl)c([N+](=O)[O-])c1Nc1ncc(C(F)(F)F)cc1Cl [Fluazinam]	1.80^a g/mL
Cc1cc(C(F)(C(F)(F)F)C(F)(F)F)ccc1NC(=O)c1cccc(I)c1C(=O)NC(C)(C)CS(C)(=O)=O [Flubendiamide]	1.78^a g/mL
N#Cc1c[nH]cc1-c1cccc2c1OC(F)(F)O2 [Fludioxinil]	1.54^a g/mL
N#Cc1ccccc1NC(=O)c1snc(Cl)c1Cl [Isotianil]	1.56^a g/mL
COCC(=O)N(c1c(C)cccc1C)[C@H](C)C(=O)OC [Metalaxyl-M]	1.09^a g/mL
CNC(=O)/C(=N/OC)c1ccccc1Oc1ccccc1 [Metominostrobin]	1.13^a g/mL
Cc1nn(C)c(F)c1C(=O)Nc1ccccc1C(C)CC(C)C (stereo not drawn) [Penflufen]	1.18^a g/mL
CO/C=C(/C(=O)OC)c1ccccc1COc1cccc(C(F)(F)F)n1 [Picoxystrobin]	1.28^a g/mL
CC12CC1(C)C(=O)N(c1cc(Cl)cc(Cl)c1)C2=O (stereo not drawn) [Procymidone]	1.43^a g/mL
CCCC1COC(Cn2cncn2)(c2ccc(Cl)cc2Cl)O1 (stereo not drawn) [Propiconazole]	1.39^a g/mL
COC(=O)N(OC)c1ccccc1COc1ccn(-c2ccc(Cl)cc2)n1 [Pyraclostrobin]	1.34^a g/mL
CC(c1ccc(C(F)(F)F)nc1)S(C)(=O)=NC#N (stereo not drawn) [Sulfoxaflor]	1.34^a g/mL
CN1COCN(Cc2cnc(Cl)s2)/C1=N\[N+](=O)[O-] [Thiamethoxam]	1.76^a g/mL
Abamectin	1.28^a g/mL
Spinetoram	1.18^a g/mL
Spinosad	1.20^a g/mL

Details: footnote a: values from the Chemistry Dashboard of the US Environmental Protection Agency
Remark: another data set of the same source

Molecule	Solubility in Water
CO/C=C(/C(=O)OC)c1ccccc1Oc1cc(Oc2ccccc2C#N)ncn1 [Azoxystrobin]	6.01^a mg/L
CO/C=C(/C(=O)OC)c1ccccc1COc1cccc(C(F)(F)F)n1 [Picoxystrobin]	8.30^a mg/L
Abamectin	36.4^a mg/L
Spinetoram	162^a mg/L
Spinosad	295^a mg/L
